In general, IC50 refers to the concentration needed to halve the response being measured. Read a low IC50 as greater potency in that assay.

Experiment [1] deals with Methionyl-tRNA synthetase (Staphylococcus aureus). The experiment can be described thus: In vitro inhibitory concentration against Staphylococcus aureus Methionyl-tRNA synthetase.
Experiment [2] is described as follows: In vitro inhibitory concentration against Methionyl-tRNA synthetase in a pyrophosphate exchange assay.

Take `CCc1cc(I)c2c(c1)C(NCCCNc1cc(O)c3ccccc3n1)CCN2` (stereo not drawn) [2-[3-(6-Ethyl-8-iodo-1,2,3,4-tetrahydro-quinolin-4-ylamino)-propylamino]-1H-quinolin-4-one]: in experiment [1], it took 12 nM to reach half-maximal inhibition (IC50).

`Oc1cc(NCCCNC2CCNc3c(Br)cc(Br)cc32)nc2ccccc12` (stereo not drawn) [2-[3-(6,8-Dibromo-1,2,3,4-tetrahydro-quinolin-4-ylamino)-propylamino]-1H-quinolin-4-one] registered an IC50 in experiment [2] of 1 nM. This lies in the single-digit nanomolar range.

In experiment [2], `Oc1cc(NCCCNCc2ccc(Cl)c(Cl)c2)nc2ccccc12` [2-[3-(3,4-Dichloro-benzylamino)-propylamino]-1H-quinolin-4-one] registered an IC50 of 500 nM.

The values are drawn from BindingDB's records for doi:10.1021/jm025502x (2002).
